Key:
[1] = test system: Normal human epidermal melanocytes (NHEMs); experiment: Determination of the melanin content of the melanocytes (Example 1); assay type: cell-based; design: key to amount of melanin in NHEM cells, mean: fold of untreated control melanin amount (control = 1); conditions: for effect on amount of melanin in the melanocytes (NHEMs), in words: 1 μM, by means of the CB1 receptor; for effect of receptor antagonist on the propigmenting effect of mAEA, in words: antagonist in combination with mAEA 1 μM (SR1 0.1 μM)
Protocol: Normal human epidermal melanocytes (NHEMs) isolated from foreskins and supplied by Promocell (Heidelberg, Germany) are cultured for 24 h at 37° C. in a humid atmosphere at 5% CO2 in an appropriate culture medium M2 (Promocell).
The AEA and the other compounds are added directly to the culture medium. Twenty-four hours after each treatment, the cell viability was measured using Trypan blue exclusion dye (Maccarone et al., 2003).
The mAEA, the AEA and the ACEA are tested in vitro at a concentration of 1 μM and compared. The mAEA is also used at this concentration when it is used in combination with SR1 at 0.1 μM.
Moreover, the mAEA was also tested, alone, at concentrations of 0.5, 1.0, 1.5, 2.0, 2.5 and 3.0 μM.
The amount of melanin present in the NHEM cells is measured according to a method known to those skilled in the art (Xiao et al., Arch Dermatol Res 2007; 299: 245-57). According to this method, the NHEM cells are treated with trypsin and washed twice with a phosphate buffered saline. The samples are then resuspended in 200 μl of MilliQ water, and 1 ml of an ethanol: ether mixture (1:1, vol/vol) is added in order to remove the opaque substances other than melanin. After 15 minutes, the samples are centrifuged at 600 g for 5 minutes. The pellet is air-dried and dissolved in 200 μl of 1 N sodium hydroxide. The samples are then heated at 80° C. for one hour and cooled.
The amount of melanin is determined by spectrophotometry at 450 nm using the standard melanin controls supplied by Sigma Chemical Co., so as to verify the linearity range of the test. The amount of melanin is expressed relative to the control.
The results given are the means, with their standard deviations, of 3 independent tests, each carried out in triplicate. They were compared by analysis of variance (ANOVA).

[2] = test system: Primary human melanocytes (NHEMs); experiment: Melanin production in NHEMs (Example 4); assay type: cell-based; conditions: 1 μM, 72 h
Protocol: (§1) Primary human melanocytes (NHEMs) were seeded into 24-well plates in the presence (coculture) of normal human epidermal keratinocytes (NHEKs) and then cultured for 24 h. The cells were then treated with nothing (negative control), IBMX (positive control, 200 μM), or methanandamide (mAEA, 1 μM).
(§2) After treatment, the cells were incubated for 72 h, all the experimental conditions having been carried out in triplicate.
(§3) After 72 h of incubation, the cells were lysed with a 0.5 N NaOH solution in order to extract the melanin.
(§4) Quantification of the pigmentation by microscopic quantification of the melanin is then carried out and makes it possible to illustrate a propigmenting activity of the test compound.
(§5) The optical density of the samples was measured at 405 nm, with reference to an exogenous melanin range (standard melanin curve 0.39 to 100 μg/ml).

[3] = test system: pigmented reconstructed epidermises (normal human melanocytes and keratinocytes); experiment: Propigmenting effect on pigmented reconstructed epidermises (PREs), melanin quantified by image analysis (Example 3); assay type: cell-based
Protocol: Pigmented epidermises are reconstructed on a collagen support (BPER [biodressing for reconstructed epidermis]) using normal human melanocytes and keratinocytes.
The epidermises are obtained after 8 days of reconstruction; the melanocytes chosen are of estimated phototype IV.1.
Some epidermises are treated daily with the placebo, others with the test product mAEA at different concentrations (1 μM and 3 μM).
Each experimental condition is performed in quadruplicate.
The histological quality of the epidermises after treatment is evaluated on histological sections after HES staining in order to determine the impact of the treatment on the epidermises. Also, the physiology of the melanocytes is studied in order to detect any melano-cytotoxicity. If no histological modification nor any melanotoxic effect of the product evaluated is noted, the pigmentation is quantified by quantifying the melanin on histological sections by image analysis.
as §4
The melanin present in the epidermis is stained on histological sections (Fontana Masson staining) and then quantified by image analysis. For this, each epidermis is photographed over its entire width using a microscope. Approximately 10 images are acquired per epidermis (white light, ×20 magnification).
The area taken up by melanin is quantified using custom-designed image analysis software. Briefly, each image is segmented into 4 zones according to their color (lumen, stratum corneum, live epidermis and BPER). […] The pixels occupied by the melanin in the whole epidermis or the live layers are then quantified.
This quantification takes into account the area taken up by the melanin and also the average localization of the melanin in the epidermis.
The results below are expressed as percentage relative stimulation with respect to the control cultured in standard coculture medium.

NHEKs+NHEMs coculture = experiment: Melanin production in NHEM-NHEK coculture (Example 4); assay type: cell-based, human; conditions: 72 h
Protocol: as §1, §2, §3, §4, §5

[4] = expressed relative to the control, compound alone at 1 μM, mean of 3 independent tests

CCCCC/C=C\C/C=C\C/C=C\C/C=C\CCCC(=O)NCCCl [ACEA, Arachidonyl-2′-chloroethylamide]
effect on amount of melanin in the melanocytes (NHEMs), in words [1]: significantly increase the amount of melanin | amount of melanin in NHEM cells, mean [1, 4]: 2.14

CCCCC/C=C\C/C=C\C/C=C\C/C=C\CCCC(=O)NCCO [Anandamide, N-arachidonoylethanolamine]
effect on amount of melanin in the melanocytes (NHEMs), in words [1]: significantly increase the amount of melanin | amount of melanin in NHEM cells, mean [1, 4]: 2.09

Cc1c(C(=O)NN2CCCCC2)nn(-c2ccc(Cl)cc2Cl)c1-c1ccc(Cl)cc1 [SR1, N-piperidino-5-(4-chlorophenyl)-1-(2,4-dichlorophenyl)-4-methyl-3-pyrazole carboxamide, reference compound]
effect of receptor antagonist on the propigmenting effect of mAEA, in words [1]: prevents mAEA from having its propigmenting effect

CCCCC/C=C\C/C=C\C/C=C\C/C=C\CCCC(=O)NC(C)CO (stereo not drawn) [mAEA, R(+)-arachidonyl-1′-hydroxy-2′-propylamide]
melanin production in NHEM cells, in words [2]: increase in melanin production | effect on amount of melanin in the melanocytes (NHEMs), in words [1]: significantly increase the amount of melanin | dose/effect relationship of melanin production in NHEM cells, in words ([1]; 0.5 to 3.0 μM): dose-dependent increase in melanin production | amount of melanin in NHEM cells, mean [1, 4]: 2.80 | amount of melanin in NHEM cells, mean ([1]; relative to the control, mAEA 1 μM in combination with SR1 0.1 μM): 1.22 | amount of melanin in NHEM cells, mean ([1]; relative to the control, mAEA alone 0.5 μM): 1.75 | amount of melanin in NHEM cells, mean ([1]; relative to the control, mAEA alone 1.5 μM): 3.30 | amount of melanin in NHEM cells, mean ([1]; relative to the control, mAEA alone 2 μM): 3.34 | amount of melanin in NHEM cells, mean ([1]; relative to the control, mAEA alone 2.5 μM): 3.75 | amount of melanin in NHEM cells, mean ([1]; relative to the control, mAEA alone 3 μM): 4.13 | amount of melanin in NHEM cells, mean ([1]; relative to the control, mAEA in combination with SR2): 2.34 | melanin, percentage relative stimulation with respect to the control ([3]; 1 μM SYST D17): 315% | melanin production in pigmented reconstructed epidermises, in words ([3]; 1 μM and 3 μM, daily treatment): very large increase in melanin production | melanin, percentage relative stimulation with respect to the control ([3]; second line, printed 1 μM SYST D17): 356.25% | melanin production in NHEK+NHEM cells, in words (NHEKs+NHEMs coculture; 1 μM): increase in melanin production | melanin production in NHEKs+NHEMs compared with NHEMs alone and IBMX positive control, in words (NHEKs+NHEMs coculture; mAEA 1 μM vs IBMX 200 μM): greater than in NHEMs alone, even exceeding that of the IBMX positive control

N-[(1S)-endo-1,3,3-trimethy-1-bicyclo[2.2.1]heptan-2-yl]-5-(4-choro-3-methylphenyl)-1-(4-methylbenzyl)pyrazole-3-carboxamide [SR2, reference compound]
effect of receptor antagonist on the propigmenting effect of mAEA, in words [1]: does not, on the other hand, prevent mAEA from having this effect

Source: US9326927B2, “Use of cannabinoid compounds for stimulating melanogenesis” (L'OREAL, priority 2011, dated 2016)
